{"source": "patent US8492159B2", "about": "“Methods and compositions for treating conditions” (priority 2004, dated 2013)", "key": {"[1]": {"tested_on": "Pseudomonas syringae pv tomato, DC3000", "assay": "Systemic resistance of plants to a virulent bacterial pathogen", "assay_type": "in vivo, Arabidopsis ecotype Columbia (Col-0)", "details": "20 μl salicylic acid at 1 mM and 20 μl SEQ ID NO: 15 applied together to the leaves", "procedure": "Seeds of Arabidopsis ecotype Columbia (Col-0) were planted in potting soil. Plants were cultivated in a growth chamber with 10-h d (200 μmol m^−2 s^−1 at 22° C.) and 14-h night (18° C.) cycles and 80% RH. Once a week plants were supplied with water and modified one-half strength Hoagland nutrient solution: 2 mM KNO 5 mM Ca(NO3)2 and trace elements, pH 7.\nA virulent plant pathogen, Pst Pseudomonas syringae pv tomato, DC3000 was grown at 28° C. on King's medium B containing 40 mg/L tetracycline. Plants were inoculated with 1×10^7 cfu/ml of the pathogen in 0.01% Silwet L77 (v/v) (a surfactant) and distilled water 5 weeks after sowing. The bacterial suspension or a control solution (0.01% Silwet L77 in water) was then sprayed on the plant once.\nDisease symptoms in Arabidopsis are water-soaked, spreading lesions, sometimes surrounded by chlorotic margin that eventually lead to yield loss and plant death.\nTo test the efficacy of SEQ ID NO: 15, some healthy and some disease plants were sprayed with salicylic acid in 0.01%. Silwet L77; some healthy and some disease plants were sprayed with SEQ ID NO: 15 in 0.01%. Silwet L77, and some healthy and some disease plants were sprayed with salicylic acid in combination with SEQ ID NO: 15 in 0.01%. Silwet L77. A control group of some healthy and some disease plants were sprayed with water in 0.01%. Silwet L77. […]"}, "[2]": {"tested_on": "Sauromatum guttatum appendix", "assay": "Modulation of heat generated by aspirin (ASA) in appendix sections", "details": "appendix sections in aqueous ASA with or without peptide", "procedure": "(§1) In one example, using Sauromatum guttatum as the experimental module, on the day of inflorescence-opening, the Sauromatum appendix (a 20-40 cm-long, slender organ) becomes warm, reaching a 32° C. temperature (Skubatz et al., 1991, Plant Physiol. 95:1084-1088). The heat generated by the appendix is generated by the mitochondria. This mitochondrial activity can be triggered by the addition of phenolic compounds, including but not limited to, salicylic acid, aspirin, and 2,6-dihydroxybenzoic acid. Test agents can be applied to the plant and the plant's temperature may be monitored in vivo.\nOne day before heat-production, sections of the appendix were placed in different aqueous solutions containing ASA with or without an opioid peptide. [Leu]-Enkephalin, SEQ ID NO: 15; Human β-Endorphin; SEQ ID NO: 19; Dynorphin A, SEQ ID NO: 21; Endomorphin 2, SEQ ID NO: 24; Neuropeptide AF, SEQ ID NO: 44; β-human-Casomorphin, SEQ ID NO: 47; Alzheimer's peptide, SEQ ID NO: 48. […] Temperature was recorded with thermocouples attached to the section every 5 min."}, "[3]": {"tested_on": "Sauromatum guttatum appendix", "assay": "Modulation of heat generated by salicylic acid (SA) in appendix sections", "details": "appendix sections in aqueous SA with or without peptide", "procedure": "as §1\nFIG. 5 illustrates modulation of heat generated by salicylic acid (SA) in the presence of human opioid peptides (β-Endorphin, SEQ ID NO: 19 and Nueuropeptide AF, SEQ ID NO: 44) and, the Alzheimer's peptide, Aβ 1-42, SEQ ID NO: 49, and, a plant virulent bacterial pathogen (Pst DC3000). One day before heat-production, sections of the appendix were placed in different aqueous solutions containing salicylic acid (SA) with or without a peptide or with the bacterial plant pathogen, Pseudomonas syringae pv. Tomato, DC3000. Sections from the appendix were placed in distilled water that was not generated any heat is the control (water). Temperature was recorded with thermocouples attached to the sections every 5 min."}, "chronic pain": {"tested_on": "chronic pain", "assay": "Topical administration to an adult subject with chronic pain, scaled score 1 to 10", "assay_type": "in vivo, human", "procedure": "An adult subject suffering from chronic pain as a result from of multiple fractures to both tibia and fibula in both legs and severe traumatic soft tissue damage was topically administered a composition containing a polypeptide of SEQ ID NO: 1 at regions experiencing pain (mostly knees and ankles). The pharmaceutical formulation administered comprised of 5 μM of SEQ ID NO: 1 in 0.01% Silwet L-77. Relief was noticed within 15 min. after administration of a single dose of about 5 μg/10 cm2 of SEQ ID NO: 1. […] A scaled score of 1 to 10 was used to evaluate treatment efficacy where a score of 10 represented a patient with sever pain discomfort and complete inability to walk. A scaled score of 1 represented a patient experiencing no pain and able to freely walk or move the legs. Prior to treatment, the patient scored an 8-9 representing chronic pain and difficulties in walking long distance. After the treatment, the patient scored a 2-3 representing a significant decrease in pain. Treatment efficacy lasted for about 10 days."}, "[4]": {"tested_on": "post-operative pain in rats", "assay": "Hind paw withdrawal threshold (von Frey filaments) after surgery, second study", "assay_type": "in vivo, rat", "procedure": "In a second independent study the rat hind paw withdrawal sensitivity was again evaluated after 3 h and 3 day post-surgery when the rats had received SEQ ID NO: 1 at three different concentrations: 1, 15 and 50 mg/kg. The dosing route was subdermal injection adjacent to the wound site. The rats received one dose 3 hours after the surgery and on Day 3 post-surgery, group 3 was dosed again as described in the Table IV. Pain measurements were taken 15-20 min after application of the drug. Baseline pain behavior was measured as follows: Withdrawal responses to mechanical stimulation were determined using von Frey filaments applied from underneath the cage through openings (12×12 mm in the plastic mesh floor to an area adjacent to the intended incision. Each von Frey filament (Target force of 0.008 g to 300 g) was applied once starting with 0.008 g filament and continuing until a withdrawal response occurred or 300 g force was reached. The median force producing a response, determined from three tests given over a 10-min period was considered the withdrawal threshold.\nIn the saline treated animals, the control, 3-hour post-surgery were 25.1, 4.4 and 12.7 g, indicating significant hyperalgesic response immediately after surgery which subsided by Day-3. […] The withdrawal response in the 50 mg/kg SEQ ID NO: 1 administered on Day-1 was 9.9 g compared to the 4.4 g for the saline group at the same time-point, indicating a 125% effect. The data expressed as mean±SE, were analyzed using ANOVA followed by Tukey-HSD Multiple Comparison Test. Statistical significance was p<0.05.\nOn Day-3, when these animals were administered with […] of SEQ ID NO: 1 subdermally, the withdrawal response was at 21.3 g, compared to the withdrawal response of saline group at 12.7 g, constituting an increase of 68%. The data expressed as mean±SE, were analyzed using ANOVA followed by Tukey-HSD Multiple Comparison Test. Statistical significance was p<0.05."}, "[5]": {"tested_on": "Arabidopsis thaliana plants", "assay": "Flowering of treated plants", "assay_type": "in vivo", "details": "10 μm in 0.01% Silwet L-77"}, "[6]": {"tested_on": "post-operative pain in rats", "assay": "Von Frey testing for mechanical allodynia, post-operative pain (Brennan model), first study", "assay_type": "in vivo, rat", "source_text": "A total of forty (40) male Sprague Dawley rats (Harlan Sprague Dawley Inc., Indianapolis, Ind., USA) were used in the study. The rats are specific pathogen free and approximately 250 grams upon arrival. The rats were housed in the vivarium in clear polycarbonate plastic cages (48×27×20 cm); 2 rats per cage until a few days prior to surgery at which point they were singularly housed for the remainder of the study procedures. The bedding material is irradiated corn-cob bedding (Bed-O-Cob, The Andersons, Maumee, Ohio, USA) that was changed weekly. The rats were acclimated for two weeks prior to the commencement of the experimental procedures. The room in which the rats were housed throughout the study was supplied with HEPA filtered air at the rate of 10-15 air changes per hour. The temperature was maintained at 18-26° C. with a relative humidity of 30-70%. Illumination is approximately 300 lumens/m^2 at 1 m above floor level on a 12-hour light/dark cycle. […]\nOn days 1 and 3 post-surgery, the rats underwent Von Frey testing for mechanical allodynia. Tactile sensitivity (i.e. mechanical allodynia) was measured using calibrated filaments touched to the plantar surface of the affected limb. […]\nFIG. 1. Data were analyzed using a one-way ANOVA followed by Newman-Keuls' Multiple Comparison. […]"}, "[7]": {"tested_on": "Sauromatum guttatum appendix", "assay": "Modulation of heat generated by 2,6-dihydroxybenzoic acid (2,6-DHBA) in appendix sections; peptide alone in a second experiment", "procedure": "as §1\nFIG. 6 illustrates modulation of heat generated by 2,6-dihydroxybenzoic acid in the presence of the Alzheimer's peptide, A.β.1-42, SEQ ID NO: 49 and a plant gene derived sequence in the Sauromatum guttatum appendix. One day before heat-production, sections of the appendix were placed in different solutions containing 2,6-dihydroxybenzoic acid (2,6-DHBA) with or without SEQ ID NO: 2 (FLPSEFGVDVDR) and SEQ ID NO: 49. Heat-production was monitored with thermocouples attached to the sections. A section placed in distilled water that was not generated any heat is the control (water). […] The temperature was recorded every 5 min."}}}
{"compound": "O=C(O)c1ccccc1O", "note": "[salicylic acid]", "values": [{"measurement": "systemic resistance to the virulent bacteria", "setting": "[1]", "result": "enough to trigger systemic resistance"}]}
{"compound": "AGEGLNSQFWSLAAPQRF [SEQ ID NO: 44]", "values": [{"measurement": "modulation of heat generated by aspirin (ASA) (FIG. 4)", "setting": "[2]", "result": "can modulate thermogenicity in plants"}, {"measurement": "modulation of heat generated by salicylic acid (SA) (FIG. 5)", "setting": "[3]", "result": "modulate thermogenicity in plants"}]}
{"compound": "FLPS (Description of Unknown: Arabidopsis thaliana or Homo sapiens) [SEQ ID NO: 1]", "values": [{"measurement": "scaled pain score after the treatment", "setting": "chronic pain; scale 1 (no pain) to 10 (severe pain), prior to treatment 8-9", "result": "2-3"}, {"measurement": "duration of treatment efficacy", "setting": "chronic pain; topical, single dose", "result": "about 10 days"}, {"measurement": "duration of relief", "setting": "chronic pain; topical, single dose of about 5 μg/10 cm2", "result": "more than a week"}, {"measurement": "time until relief was noticed", "setting": "chronic pain; topical, single dose of about 5 μg/10 cm2, 5 μM in 0.01% Silwet L-77", "result": "≤ 15", "unit": "min"}, {"measurement": "increase in the pain threshold", "setting": "[4]; 1 mg/kg on day 1, 3-hour post surgery measurements", "result": 39, "unit": "%"}, {"measurement": "effect compared to the saline group at the same time-point", "setting": "[4]; 50 mg/kg subdermal, Day-1, 3 h after surgery", "result": 125, "unit": "%"}, {"measurement": "withdrawal response", "setting": "[4]; 50 mg/kg subdermal, Day-1, 3 h after surgery, saline group 4.4 g", "result": 9.9, "unit": "g"}, {"measurement": "increase in response time compared to the saline group", "setting": "[4]; Day 3, group which did not receive any further dosing", "result": 31, "unit": "%"}, {"measurement": "increase of withdrawal response compared to saline group", "setting": "[4]; Day-3, 15.25 mg/kg subdermally", "result": 68, "unit": "%"}, {"measurement": "withdrawal response", "setting": "[4]; Day-3, 15.25 mg/kg subdermally (animals given 1 mg/kg on day 1), saline group 12.7 g", "result": 21.3, "unit": "g"}, {"measurement": "flowering", "setting": "[5]", "result": "induces early flowering and abundance of flowers and pods"}, {"measurement": "pain (mechanical allodynia, paw withdrawal threshold, FIG. 1)", "setting": "[6]; rats 3 days after surgery, 150 μg topical or subdermal, p<0.05", "result": "significantly reduce pain"}, {"measurement": "appearance of the rats", "setting": "[6]; rats after surgery, treated", "result": "relaxed and with less anxiety"}]}
{"compound": "FLPSEFGVDVDR [SEQ ID NO: 2]", "values": [{"measurement": "modulation of heat generated by 2,6-dihydroxybenzoic acid (FIG. 6)", "setting": "[7]; appendix sections in 2,6-DHBA with or without peptide", "result": "modulate thermogenicity in plants"}, {"measurement": "heat generation by the peptide", "setting": "[7]; second experiment, up to 50 μM, data not shown", "result": "did not generate heat"}]}
{"compound": "YGGFL [SEQ ID NO: 15]", "values": [{"measurement": "modulation of heat generated by aspirin (ASA) (FIG. 4)", "setting": "[2]", "result": "can modulate thermogenicity in plants"}, {"measurement": "systemic resistance to the virulent bacteria", "setting": "[1]", "result": "enough to trigger systemic resistance"}]}
{"compound": "YGGFLRRIRPKLKWDNQ [SEQ ID NO: 21]", "values": [{"measurement": "modulation of heat generated by aspirin (ASA) (FIG. 4)", "setting": "[2]", "result": "can modulate thermogenicity in plants"}]}
{"compound": "YGGFMTSEKSQTPLVTLFKNAIIKNAYKKGE [SEQ ID NO: 19]", "values": [{"measurement": "modulation of heat generated by aspirin (ASA) (FIG. 4)", "setting": "[2]", "result": "can modulate thermogenicity in plants"}, {"measurement": "modulation of heat generated by salicylic acid (SA) (FIG. 5)", "setting": "[3]", "result": "modulate thermogenicity in plants"}]}
{"compound": "YPFF [SEQ ID NO: 24]", "values": [{"measurement": "modulation of heat generated by aspirin (ASA) (FIG. 4)", "setting": "[2]", "result": "can modulate thermogenicity in plants"}]}
{"compound": "YPFVEPIP [SEQ ID NO: 47]", "values": [{"measurement": "modulation of heat generated by aspirin (ASA) (FIG. 4)", "setting": "[2]", "result": "can modulate thermogenicity in plants"}]}
